# Assays:
# [1] = system: murine colon cancer cells (CT26Luc); experiment: Ad-RTS-mIL12 in the colon cancer (CT26Luc) model; format: in vivo, mouse; conditions: activator chow alone
# Source text: Female, 6- to 8-week-old Balb/C immunocompetent mice were inoculated subcutaneously (s.c.) with luciferase expressing stable murine colon cancer cells (CT26Luc). Ten days post cell inoculation, the mice were randomly assigned to treatment and control groups (n=5) for a total of three groups—no treatment (control), activator (L) (RG-115932) alone, and Ad-RTS-mIL12 plus activator. The cohorts receiving activator (L) were fed 2018 Teklad Global 18% Protein Rodent Diet chow (Harlan Laboratories) blended with activator (1000 mg/kg chow) ad libitum. Cohorts receiving no treatment continued to receive 2018 Teklad Global 18% Protein Rodent Diet chow. Treatment was initiated when the tumor reached 40+17 mm^3. The Ad-RTS-mIL12 (1e10 vp/100 ul in PBS) was given to mice through intratumoral (i.t.) injection on Day 11 and 18 post tumor cell inoculation. The activator (L) chow was given to mice 24 hr prior to vector injection. Tumor size and body weight of each mouse were monitored three times a week using calipers and a weight scale until the end of experiment. The experiment was terminated when the mouse tumor size exceeds >2000 mm^3. Data were uploaded into Study Log animal study software.
# [2] = system: murine melanoma cancer cells (B16F0); experiment: Ad-RTS-mIL12 with different activator doses in the melanoma (B16F0) model; format: in vivo, mouse; conditions: activator chow alone
# Protocol: Female, 6- to 8-week-old C57b/6 immunocompetent mice were inoculated subcutaneously (s.c.) with murine melanoma cancer cells (B16F0). Ten days post cell inoculation, the mice were randomly assigned to treatment and control groups (n=5) for a total of nine groups: no treatment (control), activator (L) (RG-115932) alone, and AdRTS-mlL12 alone, and Ad-RTS-mIL12 with different activator dose (50, 100, 250, 500 and 1000 mg/kg) of ligand. The cohorts receiving activator (L) were fed rodent 2018 Teklad Global 18% Protein Rodent Diet chow blended with activator (1000 mg/kg chow) ad libitum. Cohorts receiving treatment with Ad-RTS-mIL12 alone or no treatment continued to receive a regular 2018 Teklad Global 18% Protein Rodent Diet chow diet. Treatment was initiated when the tumor reached […]. A single dose of Ad-RTSmIL12 (1e10 vp/100 ul in PBS) was given to mice through intratumoral (i.t.) injection on Day 13 post tumor cell inoculation. The activator (L) chow was given to mice 24 hr prior to vector injection. Tumor size and body weight of each mouse were monitored three times a week using calipers and a weight scale until the end of experiment. The experiment was terminated when the tumor size exceeded >2000 mm^3. Data were uploaded into Study Log animal study software.
# [3] = system: breast cancer (4T1) cells; experiment: Ad-RTS-mIL12 in the breast cancer (4T1) model; format: in vivo, mouse; conditions: activator ligand alone, Day 26
# Protocol: Six- to eight-week-old female BalbC mice were purchased from Charles River Laboratories or Harlan (USA). Animal care and experimental procedure were performed according to the Intrexon's Institutional Animal Care and Use Committee guideline.
# Murine breast carcinoma (4T1) cell lines were purchased from ATCC (Manassas, Va.). The 4T1 cells were grown in Roswell Park Memorial Institute medium (RPMI) 1640 (ATCC, Manassas, Va. The medium was supplemented with heat-inactivated fetal calf serum (FCS) 10% v/v, 2-mM L-glutamine (Atlanta Biologicals, Inc, Lawrenceville, Ga.), 100 IU/ml penicillin G, and 100 μg/ml streptomycin. The cells were grown at 37° C. in 5% C02. All cell lines were routinely tested and found to be free of mycoplasma.
# Female, 6- to 8-week-old BALB/c immune-competent mice were inoculated subcutaneously (s.c.) with syngenic breast cancer (4T1) cells, 1e5 cells/50 ul. Eight days post cell inoculation, the mice were randomized into groups of five animals each in four groups—no treatment, activator alone, Ad-RTS-mIL12 alone and Ad-RTS-mIL12 plus activator. The cohorts receiving activator ligand were fed rodent chow blended with activator (1000 mg/kg) ad libitum. […] Tumor size and body weight of each mouse were monitored three times a week until the end of experiment. […]
# [4] = system: PAN02 pancreatic cancer cells; experiment: Ad-RTS-mIL12 in the pancreatic cancer (PAN02) model; format: in vivo, mouse; conditions: activator alone
# Protocol: Female, 6- to 8-week-old C57b/6 immuno competent mice were inoculated subcutaneously (s.c.) with syngenic PAN02 pancreatic cancer cells (ATCC). Six days post cell inoculation, the mice were randomized into groups of five animals each in four groups—no treatment, activator (RG-115932) alone, Ad-RTS-mIL12 alone and Ad-RTS-mIL12 plus activator. The cohorts receiving activator ligand were fed 2018 Teklad Global 18% Protein Rodent Diet chow (Harlan Laboratories) blended with activator (1000 mg/kg chow) ad libitum. Cohorts receiving treatment with Ad-RTS-mIL12 alone or no treatment continued to receive 2018 Teklad Global 18% Protein Rodent Diet chow. Mice received treatment with a single intratumoral (i.t.) injection of Ad-RTS-mIL12 at dose level of 1e10 vp/100 ul in PBS, on Day 7 and Day 14 post tumor cell implantation. The tumor size averaged […] at the time of vector treatment initiation.
# Tumor size and body weight of each mouse were monitored three times a week until the end of experiment. The experiment was terminated when the mice tumor size exceeded 600 mm^3. Since pancreatic tumors grow very slowly, we defined […]. The tumor growth in mice receiving no treatment was normal.
# [5] = system: murine Lewis lung carcinoma cells (LLC); experiment: Ad-RTS-mIL12 in the Lewis lung carcinoma (LLC) model; format: in vivo, mouse; conditions: activator (L) chow alone
# Source text: Female, 6- to 8-week-old C57b/6 immunocompetent mice were inoculated subcutaneously (s.c.) with murine Lewis lung carcinoma cells (LLC). Five days post cell inoculation, the mice were randomized and assigned to treatment and control groups (n=5) for a total of four groups—no treatment (control), activator (RG-115932) alone, AdRTS-mIL12 alone and Ad-RTS-mIL12 plus activator. The cohorts receiving activator (L) were fed (2018 Teklad Global 18% Protein Rodent Diet (Harlan Laboratories) chow blended with activator (1000 mg/kg chow) ad libitum. Cohorts receiving treatment with Ad-RTS-mIL12 alone or no treatment continued to receive a regular diet. Treatment was initiated when the tumor reached 28±6 mm^3. The Ad-RTS-mIL12 (1e10 vp/100 ul in PBS) was given to mice through intratumoral (i.t.) injection on Day 6, 9 and 13 post tumor cell inoculation. Activator chow (L) was started to given to mice 24 hr prior to vector administration. Tumor size and body weight of each mouse were monitored three times a week using calipers and a weight scale until the end of experiment. The experiment was terminated when the mice tumor size exceeded >1200 mm^3. Data were uploaded into Study Log animal study software.
# [6] = system: B16F0 murine melanoma cancer cells; experiment: Ad-RTS-IL-12 dose response study in the mouse B16F0 melanoma model; format: in vivo; conditions: ligand by itself (chow)
# Source text: The anti-tumor effect of Ad-RTS-IL-12 has been evaluated in a series of murine tumor models of melanoma, colorectal, pancreatic, breast, lung and renal cancers. An exemplary dose response experiment is shown below. Immuno-competent female C57bl/6 mice (6-8 week old) were inoculated subcutaneously with B16F0 murine melanoma cancer cells. Eleven days after tumor cell inoculation, when macroscopic tumor nodules were evident (tumor volumes averaged approx. 40 mm^3), the mice were separated into groups of 5 animals each. There were 9 groups including: control saline treated; activator ligand treated; Ad-RTS-mIL12 ([…]) alone and 6 groups were treated with different doses of vector Ad-RTS-mIL-12 (1e7, 1e8, 1e9, 5e9, 1e10, 5e10 viral particles) plus activator ligand. Mice in the +ligand groups were provided 100 mg/kg activator ligand in 2018 Teklad Global 18% Protein Rodent Diet (Harlan Laboratories) chow (1000 mg ligand/kg chow) one day before the vector administration. The mice in control groups received 2018 Teklad Global 18% Protein Rodent Diet chow. A single administration of Ad-RTS-mIL12 in 100 ul PBS was injected into tumor on day 12. Tumor volume and body weights were measured every 2-3 days using calipers and a weight scale, and the animals were followed until control tumors reached 2000 mm^3. Data were uploaded into Study Log animal study software.
structure (smiles),measurement,setting,value
"CCC[C@@H](N(NC(=O)c1cccc(OC)c1CC)C(=O)c1cc(C)cc(C)c1)C(C)(C)C [RG-115932, (R)-3,5-Dimethyl-benzoic acid N-(1-tert-butyl-butyl)-N′-(2-ethyl-3-methoxy-benzoyl)-hydrazide]",tumor growth,[1],did not inhibit tumor growth
same,anti-tumor activity,[2],did not have anti-tumor activity
same,tumor growth inhibition relative to control,[3],22%
same,tumor growth inhibition relative to control,[3]; listed as activator ligand (L),35%
same,tumor growth delay,[4],minor tumor growth delay
same,tumor growth kinetics versus control,[5],approximately similar tumor growth kinetics
same,anti-tumor effect,[6],no effect

# From patent US10584351B2, “Vectors conditionally expressing therapeutic proteins, host cells comprising the vectors, and uses thereof” (Intrexon Corporation, priority 2010, dated 2020)
